The results in this text go back to patent US20240189328A1, “COMBINATION OF NOREPINEPHRINE REUPTAKE INHIBITOR AND A C[…] USE IN TREATING SLEEP APNEA” (APNIMED, INC. (DELAWARE), priority 2021, published 2024).

The test system of the experiment is participants with moderate to severe OSA. Put plainly: Open-label 4-period dose-escalation study of dronabinol+atomoxetine, polysomnography (Example 3). The conditions noted are these: atomoxetine 80 mg alone, week 1 PSG, compared to baseline. Format: in vivo, human.

Excerpt: This study is designed to assess the safety and efficacy for OSA of three escalating dose combinations of atomoxetine with dronabinol, compared to baseline and to atomoxetine alone.
The present study (SEED) is an open-label, 4 consecutive period dose-escalation study of combinations of atomoxetine and dronabinol in participants with moderate to severe OSA. Participants will undergo initial pre-screening to determine potential study eligibility. […] Only participants who meet all non-PSG enrollment criteria at Visit 1 are eligible for a screening PSG. On a case by case basis and with agreement of the Sponsor a PSG conducted at the site within 3 months may be used instead of the Screening PSG.
Participants who meet all enrollment criteria will receive an escalating dose of atomoxetine the first week: 3 days of atomoxetine 40 mg followed by 4 days of atomoxetine 80 mg. Participants will then receive escalating dose combinations of atomoxetine and dronabinol for the next 3 weeks. The weekly dose schedule is as follows: • Week 1: atomoxetine 40 mg×3 days, then 80 mg×4 days • Week 2: atomoxetine 40 mg/dronabinol 2.5 mg • Week 3: atomoxetine 80 mg/dronabinol 5 mg • Week 4: atomoxetine 80 mg/dronabinol 10 mg […]

Take `CNCCC(Oc1ccccc1C)c1ccccc1` (single isomer, unassigned; (-)) [Ato 80 mg, (−)-N-Methyl-3-phenyl-3-(o-tolyloxy)-propylamine]: the “Hypoxic burden (HB4)” value was “significantly reduced”.
